Measurements published in patent US20250034136A1 (Nimbus Wadjet, Inc., priority 2023, published 2025).

Legend:
[1] = system: p21 induction in HCT116 cells; assay: p21 induction in HCT116 cells; type: cell-based; details: Homo sapiens, HCT-116, 24 h, HCT116 cells, 24 h compound incubation; read-out: P21_EC50
Procedure, shortened: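 EC50 from non-linear curve fit of p21 immunofluorescence (800 nm), with GAPDH (700 nm) read alongside. DMSO and a reference WRN inhibitor served as low and high controls. Cells (2,000/well) got 11 compound concentrations in duplicate for 24 h at 37 °C.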

[2] = target: WRN (BV08), human Werner helicase (Uniprot Q14191, amino acids 517-1235 with L1074F point mutation) (Homo sapiens (Human), UniProt Q14191, L1074F); assay: WRN (BV08) ADP-Glo assay; type: biochemical; details: class symbols A-E, read-out: ADP-Glo_hWRN_IC50
Chain of WRN (BV08), human Werner helicase (Uniprot Q14191, amino acids 517-1235 with L1074F point mutation) (Q14191 other isoform, or with tags, fused parts or gaps L1074F (already in the parent)): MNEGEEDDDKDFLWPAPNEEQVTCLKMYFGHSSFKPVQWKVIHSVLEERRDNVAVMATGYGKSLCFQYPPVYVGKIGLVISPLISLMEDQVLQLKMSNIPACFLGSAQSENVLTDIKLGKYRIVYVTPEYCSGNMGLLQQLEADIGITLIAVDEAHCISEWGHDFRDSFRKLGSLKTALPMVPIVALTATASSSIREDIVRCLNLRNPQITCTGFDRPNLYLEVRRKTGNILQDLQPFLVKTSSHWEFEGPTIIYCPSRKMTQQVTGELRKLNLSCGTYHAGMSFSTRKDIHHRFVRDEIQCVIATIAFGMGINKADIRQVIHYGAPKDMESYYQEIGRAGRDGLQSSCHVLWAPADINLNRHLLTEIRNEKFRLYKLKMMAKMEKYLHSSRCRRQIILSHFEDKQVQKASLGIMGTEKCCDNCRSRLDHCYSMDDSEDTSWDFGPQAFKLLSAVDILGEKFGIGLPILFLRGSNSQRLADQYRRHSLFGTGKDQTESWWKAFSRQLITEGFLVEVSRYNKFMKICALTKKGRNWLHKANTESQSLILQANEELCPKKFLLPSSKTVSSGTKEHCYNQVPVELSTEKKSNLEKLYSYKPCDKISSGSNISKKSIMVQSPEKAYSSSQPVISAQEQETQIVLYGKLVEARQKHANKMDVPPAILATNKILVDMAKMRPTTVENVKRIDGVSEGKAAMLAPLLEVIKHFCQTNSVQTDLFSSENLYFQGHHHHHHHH

Compound	EC50 [1] [µM]	IC50 [2] [nM]
CCc1c(N2CCN(C(=O)c3c(O)ccc4nc[nH]c34)CC2)c(=O)c2ncc(C)nc2n1CC(=O)Nc1ccc(C(F)(F)F)cc1Cl [I-71, N-(2-chloro-4-(trifluoromethyl)phenyl)-2-(6-ethyl-7-(4-(6-hydroxy-1H-benzo[d]imidazole-7-carbonyl)piperazin-1-yl)-3-methyl-8-oxopyrido[2,3-b]pyrazin-5(8H)-yl)acetamide]	> 5	5 to 50
CCc1c(N2CCN(C(=O)c3ncnc(C)c3O)CC2)c(=O)c2nc(N3CCCC3)cnc2n1CC(=O)Nc1ccc(C(F)(F)F)cc1Cl [I-75, N-(2-chloro-4-(trifluoromethyl)phenyl)-2-(6-ethyl-7-(4-(5-hydroxy-6-methylpyrimidine-4-carbonyl)piperazin-1-yl)-8-oxo-2-(pyrrolidin-1-yl)pyrido[2,3-b]pyrazin-5(8H)-yl)acetamide]	0.5 to 2	5 to 50
CCc1c(N2CCN(C(=O)c3c(O)ccc4[nH]ncc34)CC2)c(=O)c2ncc(C)nc2n1CC(=O)Nc1ccc(C(F)(F)F)cc1Cl [I-76, N-(2-chloro-4-(trifluoromethyl)phenyl)-2-(6-ethyl-7-(4-(5-hydroxy-1H-indazole-4-carbonyl)piperazin-1-yl)-3-methyl-8-oxopyrido[2,3-b]pyrazin-5(8H)-yl)acetamide]	> 5	5 to 50
CCc1c(N2CCN(C(=O)c3nocc3O)CC2)c(=O)c2ncc(C)nc2n1CC(=O)Nc1ccc(C(F)(F)F)cc1Cl [I-77, N-(2-chloro-4-(trifluoromethyl)phenyl)-2-(6-ethyl-7-(4-(4-hydroxyisoxazole-3-carbonyl)piperazin-1-yl)-3-methyl-8-oxopyrido[2,3-b]pyrazin-5(8H)-yl)acetamide]	> 5	5 to 50
CCc1c(N2CCN(C(=O)c3ncnc(C)c3O)CC2)c(=O)c2nc(-c3cnn(C)c3)cnc2n1CC(=O)Nc1ccc(C(F)(F)F)cc1Cl [I-79, N-(2-chloro-4-(trifluoromethyl)phenyl)-2-(6-ethyl-7-(4-(5-hydroxy-6-methylpyrimidine-4-carbonyl)piperazin-1-yl)-2-(1-methyl-1H-pyrazol-4-yl)-8-oxopyrido[2,3-b]pyrazin-5(8H)-yl)acetamide]	> 5	5 to 50
CCc1c(N2CCN(C(=O)c3ncnc(C)c3O)CC2)c(=O)c2nc(C3=CCOCC3)cnc2n1CC(=O)Nc1ccc(C(F)(F)F)cc1Cl [I-82, N-(2-chloro-4-(trifluoromethyl)phenyl)-2-(2-(3,6-dihydro-2H-pyran-4-yl)-6-ethyl-7-(4-(5-hydroxy-6-methylpyrimidine-4-carbonyl)piperazin-1-yl)-8-oxopyrido[2,3-b]pyrazin-5(8H)-yl)acetamide]	> 5	5 to 50
CCc1c(N2CCN(C(=O)c3ncnc(C)c3O)C(C)(C)C2)c(=O)c2nc(N(C)C)cnc2n1CC(=O)Nc1ccc(C(F)(F)F)cc1Cl [I-87, N-(2-chloro-4-(trifluoromethyl)phenyl)-2-(2-(dimethylamino)-6-ethyl-7-(4-(5-hydroxy-6-methylpyrimidine-4-carbonyl)-3,3-dimethylpiperazin-1-yl)-8-oxopyrido[2,3-b]pyrazin-5(8H)-yl)acetamide]	0.5 to 2	5 to 50

Next, values leading:

EC50 [1] [µM]	IC50 [2] [nM]	Compound
> 5	5 to 50	CCc1c(N2CCN(C(=O)c3ncnc(C)c3O)CC2)c(=O)c2nc(N(C)CCOC)cnc2n1CC(=O)Nc1ccc(C(F)(F)F)cc1Cl [I-72, N-(2-chloro-4-(trifluoromethyl)phenyl)-2-(6-ethyl-7-(4-(5-hydroxy-6-methylpyrimidine-4-carbonyl)piperazin-1-yl)-2-((2-methoxyethyl)(methyl)amino)-8-oxopyrido[2,3-b]pyrazin-5(8H)-yl)acetamide]
> 5	5 to 50	CCc1c(N2CCN(C(=O)c3ncnc(C)c3O)CC2)c(=O)c2nc(N(C)CCO)cnc2n1CC(=O)Nc1ccc(C(F)(F)F)cc1Cl [I-73, N-(2-chloro-4-(trifluoromethyl)phenyl)-2-(6-ethyl-7-(4-(5-hydroxy-6-methylpyrimidine-4-carbonyl)piperazin-1-yl)-2-((2-hydroxyethyl)(methyl)amino)-8-oxopyrido[2,3-b]pyrazin-5(8H)-yl)acetamide]
0.5 to 2	5 to 50	CCc1c(N2CCN(C(=O)c3ncnc(C)c3O)CC2)c(=O)c2nc(N(C)CC)cnc2n1CC(=O)Nc1ccc(C(F)(F)F)cc1Cl [I-74, N-(2-chloro-4-(trifluoromethyl)phenyl)-2-(6-ethyl-2-(ethyl(methyl)amino)-7-(4-(5-hydroxy-6-methylpyrimidine-4-carbonyl)piperazin-1-yl)-8-oxopyrido[2,3-b]pyrazin-5(8H)-yl)acetamide]
> 5	5 to 50	CCc1c(N2CCN(C(=O)c3ncnc(C)c3O)CC2)c(=O)c2nc(C)cnc2n1CC(=O)Nc1ccc(C(F)(F)F)cc1Cl [I-80, N-(2-chloro-4-(trifluoromethyl)phenyl)-2-(6-ethyl-7-(4-(5-hydroxy-6-methylpyrimidine-4-carbonyl)piperazin-1-yl)-2-methyl-8-oxopyrido[2,3-b]pyrazin-5(8H)-yl)acetamide]
> 5	50 to 100	CCc1c(N2CCN(C(=O)c3ncnc(C)c3O)CC2)c(=O)c2nc(OC)cnc2n1CC(=O)Nc1ccc(C(F)(F)F)cc1Cl [I-81, N-(2-chloro-4-(trifluoromethyl)phenyl)-2-(6-ethyl-7-(4-(5-hydroxy-6-methylpyrimidine-4-carbonyl)piperazin-1-yl)-2-methoxy-8-oxopyrido[2,3-b]pyrazin-5(8H)-yl)acetamide]
> 5	5 to 50	CCc1c(N2CCN(C(=O)c3ncnc(C)c3O)CC2)c(=O)c2nc(C#N)cnc2n1CC(=O)Nc1ccc(C(F)(F)F)cc1Cl [I-83, N-(2-chloro-4-(trifluoromethyl)phenyl)-2-(2-cyano-6-ethyl-7-(4-(5-hydroxy-6-methylpyrimidine-4-carbonyl)piperazin-1-yl)-8-oxopyrido[2,3-b]pyrazin-5(8H)-yl)acetamide]
> 5	50 to 100	CCc1c(N2CCN(C(=O)c3ncnc(C)c3O)CC2)c(=O)c2nc(C(C)(C)O)cnc2n1CC(=O)Nc1ccc(C(F)(F)F)cc1Cl [I-84, N-(2-chloro-4-(trifluoromethyl)phenyl)-2-(6-ethyl-7-(4-(5-hydroxy-6-methylpyrimidine-4-carbonyl)piperazin-1-yl)-2-(2-hydroxypropan-2-yl)-8-oxopyrido[2,3-b]pyrazin-5(8H)-yl)acetamide]
2 to 5	5 to 50	CCc1c(N2CCN(C(=O)c3ncnc(C)c3O)CC2)c(=O)c2nc(Br)cnc2n1CC(=O)Nc1ccc(C(F)(F)F)cc1Cl [I-86, 2-(2-bromo-6-ethyl-7-(4-(5-hydroxy-6-methylpyrimidine-4-carbonyl)piperazin-1-yl)-8-oxopyrido[2,3-b]pyrazin-5(8H)-yl)-N-(2-chloro-4-(trifluoromethyl)phenyl)acetamide]
> 5	5 to 50	CCc1c(N2CCN(C(=O)c3ncnc(C)c3O)CC2)c(=O)c2nc(N3CC[C@H](O)C3)cnc2n1CC(=O)Nc1ccc(C(F)(F)F)cc1Cl [I-88, (S)-N-(2-chloro-4-(trifluoromethyl)phenyl)-2-(6-ethyl-7-(4-(5-hydroxy-6-methylpyrimidine-4-carbonyl)piperazin-1-yl)-2-(3-hydroxypyrrolidin-1-yl)-8-oxopyrido[2,3-b]pyrazin-5(8H)-yl)acetamide]
